The supplement of paper PMC8967900

Tests used:
Experiment in all cases: selective drug sensitivity score (sDSS, relative to normal bone marrow) (sDSS (score)); higher = more potent and effective on the cell line relative to normal bone marrow cells
Details in all cases: 72 h
380 = tested on: 380
ALL-SIL = tested on: ALL-SIL
CCRF-CEM = tested on: CCRF-CEM
CCRF-HSB2 = tested on: CCRF-HSB2
COG-LL-319h = tested on: COG-LL-319h
COG-LL-402h = tested on: COG-LL-402h
DND-41 = tested on: DND-41
HAL-01 = tested on: HAL-01
JURKAT = tested on: JURKAT
KASUMI-2 = tested on: KASUMI-2
KOPN-8 = tested on: KOPN-8
MHH-CALL-3 = tested on: MHH-CALL-3
MOLT-14 = tested on: MOLT-14
MOLT-4 = tested on: MOLT-4
P30-OHKUBO = tested on: P30-OHKUBO
PEER = tested on: PEER
REH = tested on: REH
RPMI-8402 = tested on: RPMI-8402
TANOUE = tested on: TANOUE
TMD5 = tested on: TMD5
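Note: ALL cell lines in 384-well plates, five doses spanning 10,000-fold, each plate scaled between vehicle and 100 µmol/L benzalkonium chloride controls, sDSS an adapted area-under-curve metric.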

SMILES | selective drug sensitivity score 380 | selective drug sensitivity score (ALL-SIL) | selective drug sensitivity score (CCRF-CEM) | selective drug sensitivity score (CCRF-HSB2) | selective drug sensitivity score (COG-LL-319h) | selective drug sensitivity score (COG-LL-402h) | selective drug sensitivity score (DND-41) | selective drug sensitivity score (HAL-01) | selective drug sensitivity score (JURKAT) | selective drug sensitivity score (KASUMI-2) | selective drug sensitivity score (KOPN-8) | selective drug sensitivity score (MHH-CALL-3) | selective drug sensitivity score (MOLT-14) | selective drug sensitivity score (MOLT-4) | selective drug sensitivity score (P30-OHKUBO) | selective drug sensitivity score (PEER) | selective drug sensitivity score (REH) | selective drug sensitivity score (RPMI-8402) | selective drug sensitivity score (TANOUE) | selective drug sensitivity score (TMD5)
CCN1C(=O)CNc2ncc(-c3ccc(-c4nc[nH]n4)nc3C)nc21 [CC-115] (top concentration 10000 nM) | 10.6 | 1.34 | 4.24 | 2.64 | 11.7 | 3.44 | 6.74 | 2.54 | 1.24 | 5.74 | 17.5 | 1.34 | 1.24 | 3.04 | 2.94 | 2.34 | 0.44 | 0.94 | -5.46 | -1.66
Cc1noc2c1-c1ccccc1C(c1ccc(Cl)cc1)=N[C@H]2CC(N)=O [CPI-0610] (top concentration 10000 nM) | 1.7 | -0.6 | -0.1 | 0.8 | 10.3 | 4.9 | 1.6 | -2.2 | -0.2 | -5.8 | 11.1 | 17.9 | 0.3 | -2.6 | 6.1 | -1.9 | -1.2 | 4.4 | -5.8 | 0
Cc1cc(Nc2ncc(Cl)c(Nc3ccccc3S(=O)(=O)C(C)C)n2)c(OC(C)C)cc1C1CCNCC1 [Ceritinib] (top concentration 2500 nM) | 0.36 | 4.36 | -3.34 | -3.44 | 6.66 | 2.86 | -3.44 | -1.44 | -3.44 | -3.44 | -3.44 | -3.44 | -3.44 | -3.44 | -2.44 | -3.44 | -2.84 | -1.84 | -3.44 | -3.44
Nc1nc(Cl)nc2c1ncn2[C@@H]1O[C@H](CO)[C@@H](O)[C@@H]1F [Clofarabine] (top concentration 10000 nM) | 13.4 | 4.9 | 8.2 | 6.8 | 5.6 | 8.1 | 1.4 | 2.7 | 1.9 | 8.3 | 6.7 | 10.9 | 11.4 | 3.7 | 10.3 | -5.9 | 2.3 | 3.5 | -18.6 | -26.5
CC1(COc2ccc3c(c2)ncn3-c2ccc3cccc(N4CCC(N)CC4)c3n2)COC1 [Crenolanib] (top concentration 10000 nM) | 2.08 | 0.28 | -1.82 | 4.98 | -3.92 | 0.68 | 0.98 | -1.82 | -1.12 | -5.22 | 0.68 | -5.32 | -1.22 | -4.02 | -2.72 | -1.52 | -4.32 | -2.72 | -9.32 | -0.02
Cc1nc(Nc2ncc(C(=O)Nc3c(C)cccc3Cl)s2)cc(N2CCN(CCO)CC2)n1 [Dasatinib] (top concentration 1000 nM) | -2.8 | 41.4 | -2.8 | 37.8 | 9.2 | 16.8 | 1.4 | -2.8 | -2.8 | -2.8 | 0.4 | -2.8 | 4.2 | 1.9 | 6.1 | 17.2 | -2.8 | -0.8 | -2.8 | 10.4
CCc1cnn2c(NCc3ccc[n+]([O-])c3)cc(N3CCCC[C@H]3CCO)nc12 [Dinaciclib] (top concentration 1000 nM) | -5.34 | -1.74 | -2.54 | -2.74 | 7.16 | 2.86 | -0.14 | -5.74 | -5.64 | -7.74 | -6.34 | 1.76 | -3.24 | -5.84 | 0.26 | -0.24 | -5.84 | -2.64 | -14.3 | -10.8
COc1cccc2c1C(=O)c1c(O)c3c(c(O)c1C2=O)C[C@@](O)(C(=O)CO)C[C@@H]3O[C@H]1C[C@H](N)[C@H](O)[C@H](C)O1 [Doxorubicin] (top concentration 1000 nM) | 11.9 | 1.68 | 7.28 | 14.4 | 13.4 | 13.1 | 1.58 | 1.38 | 2.78 | 7.68 | 13.3 | 14.8 | 13.8 | 10.5 | 5.18 | -3.62 | 9.28 | 5.58 | -7.62 | 3.18
C=C1C[C@@H]2[C@H](CC[C@]3(C)C(=O)CC[C@@H]23)[C@@]2(C)C=CC(=O)C=C12 [Exemestane] (top concentration 10000 nM) | 7.7 | -1.9 | -0.9 | -1 | 10 | 2.2 | -1.9 | 3.8 | -1.4 | 2.3 | 5.8 | 0.1 | 1 | -1.9 | -0.4 | -1.5 | -1.9 | -1.9 | -0.7 | -0.1
COc1cc2c(Oc3ccc(NC(=O)C4(C(=O)Nc5ccc(F)cc5)CC4)cc3F)ccnc2cc1OCCCN1CCOCC1 [Foretinib] (top concentration 1000 nM) | -0.56 | 13.6 | 0.64 | 6.24 | 3.44 | 1.64 | -4.46 | 3.34 | -4.36 | -2.96 | 7.84 | -3.56 | 1.94 | 0.64 | 0.54 | 5.04 | 0.24 | 0.34 | -4.46 | 2.64
COc1cc(Nc2ncc(F)c(Nc3ccc4c(n3)N(COP(=O)(O)O)C(=O)C(C)(C)O4)n2)cc(OC)c1OC [Fostamatinib] (top concentration 2500 nM) | -2.84 | 1.96 | -2.34 | 4.46 | 15.3 | 3.46 | -0.64 | 0.76 | -2.14 | -2.84 | 4.66 | -1.44 | -0.34 | -2.04 | 2.96 | 0.66 | -1.84 | -0.24 | -1.94 | -2.84
CC1(C)OCCn2c1nc1c(N3CCOCC3)nc(-c3cnc(N)nc3)nc12 [GDC-0084] (top concentration 10000 nM) | 15 | 4.8 | 6.9 | 6.1 | 3 | 7.5 | 1.8 | 11 | 2.9 | 6 | 13.2 | 7 | 1.3 | 6.9 | 10.9 | 2 | 8.8 | 5.1 | -4.9 | 6.6
CC(C)c1cc(-c2n[nH]c(=O)n2-c2ccc3c(ccn3C)c2)c(O)cc1O [Ganetespib] (top concentration 1000 nM) | 2.74 | 1.14 | 2.04 | 4.34 | 1.14 | 4.54 | 2.94 | 0.74 | -2.46 | 6.04 | 10.1 | 6.64 | 1.74 | 3.14 | 2.24 | -1.86 | 0.54 | -1.66 | -8.36 | -5.36
CCc1nc(C(N)=O)c(Nc2ccc(N3CCC(N4CCN(C)CC4)CC3)c(OC)c2)nc1NC1CCOCC1 [Gilteritinib] (top concentration 1000 nM) | -2.52 | -2.52 | -2.42 | 0.08 | 13.6 | 1.58 | -2.52 | -1.82 | -2.52 | -2.52 | 3.08 | -2.52 | -2.52 | -2.52 | 7.38 | -2.22 | -2.52 | -1.32 | -2.52 | -2.52
CCN(CC)Cc1ccc2cc(COC(=O)Nc3ccc(C(=O)NO)cc3)ccc2c1 [Givinostat] (top concentration 1000 nM) | 6.9 | 8.6 | 3.6 | 4.5 | 10.1 | 12.9 | 2.4 | -2.4 | 0.9 | 10.6 | 13.5 | 15.6 | 6.8 | 2.1 | 3.7 | 6.1 | 0.2 | 3.9 | -4.5 | -0.1
COCCNCc1ccc(-c2cc3nccc(Oc4ccc(NC(=S)NC(=O)Cc5ccc(F)cc5)cc4F)c3s2)nc1 [Glesatinib] (top concentration 2500 nM) | -1.96 | 10.4 | -1.06 | 11.7 | 3.74 | -1.76 | 0.44 | 2.44 | -1.96 | 4.74 | 6.14 | -0.36 | 0.54 | -0.96 | -0.76 | 4.54 | 4.44 | 0.54 | -1.96 | 2.74
C=CC(=O)N1CCC[C@@H](n2nc(-c3ccc(Oc4ccccc4)cc3)c3c(N)ncnc32)C1 [Ibrutinib] (top concentration 1000 nM) | 0.9 | 0 | 0.1 | 7 | 5.2 | 9.1 | 0 | 1.9 | 0 | 0 | 2.7 | 0 | 2.6 | 1.4 | 1.2 | 0.6 | 0 | 1.1 | 0 | 0.1
CC[C@H](Nc1ncnc2[nH]cnc12)c1nc2cccc(F)c2c(=O)n1-c1ccccc1 [Idelalisib] (top concentration 10000 nM) | 5.74 | 0.04 | 3.64 | 1.24 | 1.74 | 5.34 | -1.16 | 16.1 | -1.76 | 8.04 | 5.64 | 9.44 | -2.16 | -1.36 | 7.94 | -2.16 | 2.74 | -0.76 | -2.16 | 8.84
